What was measured:
B16 melanoma cells [1] = assay: Melanin secretion of B16 melanoma cells, colour of DMEM medium; assay type: cell-based; settings: 0.1 mg/ml PABA in DMEM, seven days; unsupplemented medium turned brown
Method: The RPMI medium remained red due to the inhibition of melanin secretion. One of the major components in RPMI that is absent in DMEM is PABA. To assess the effect of PABA on melanin secretion from B16 cells, PABA was added to DMEM culture medium to achieve the same concentration as that found in the RPMI medium: 0.1 mg of PABA per milliliter of medium. Cells were grown in PABA-supplemented DMEM medium for seven days. The PABA-supplemented medium remained red, while the unsupplemented medium turned brown.

B16 melanoma cells [2] = assay: Melanin content of culture medium by absorbance at 405 nm and 660 nm; assay type: cell-based; settings: PABA 0.5 mg/day and 1.0 mg/day, DMEM
Method: Melanin levels were determined by absorbance at 405 nm wavelength (A) and absorbance at 660 nm wavelength (B). To further analyze the effects of PABA on B16 melanoma cell melanin secretion, PABA was added at concentrations of 0.5 mg/day and 1.0 mg/day to B16 melanoma cells cultured in DMEM. Samples of the culture medium were then analyzed for melanin content by measuring absorbance at wavelengths of 405 nm and 660 nm.

B16 melanoma cells [3] = assay: Intracellular melanin, colour of cell pellets; assay type: cell-based; settings: 0.1 mg/ml PABA, three weeks of culture; untreated pellets black
Method: To determine whether PABA inhibits the intracellular synthesis of melanin in B16 cells, cells were grown in DMEM in the presence or absence of 0.1 mg/ml PABA. Following three weeks of culture, cells were collected by centrifugation. Cell pellets from cells cultured in the absence of PABA appeared black, as normal, indicating the presence of melanin.

tyrosinase = assay: Tyrosinase activity, Dopachrome formation from L-DOPA (OD 475 nm); assay type: biochemical; settings: L-DOPA 8.0 mM, 800 U purified tyrosinase
Method: Tyrosinase activity was assessed by measuring the formation of Dopachrome from L-DOPA using absorbance at 475 nm wavelength.
The effects of PABA on tyrosinase activity were evaluated by measuring the formation of Dopachrome using a previously published method. (Heidcamp W (1995), supra.) L-DOPA (8.0 mM) was resuspended in sodium citrate buffer and 800 U of purified tyrosinase was added. Tyrosinase activity was measured by monitoring the formation of Dopachrome by measuring the optical density of the mixture at a wavelength of 475 nm. To assess the effects of PABA, the reactions were performed in the presence or absence of PABA. As a control, reactions were performed in the presence of adenosine instead of PABA.

B16 melanoma cells [4] = assay: B16 melanoma experimental metastasis in chick embryo model; assay type: in vivo; settings: cells grown with 0.1 mg/ml PABA for one to three weeks, injected into 12-day old chick embryos, 7-day incubation
Method: The number of melanoma metastases were measured by counting the number of metastatic lung tumor lesions present in lungs from sacrificed chick embryos. The effect of PABA on the aggressiveness and invasiveness of B16 melanoma was measured in a chick embryo model. (Brooks PC et al. (1994) Cell 79:1157-1164.) The effects of PABA on B16 experimental metastasis in vivo were evaluated to determine the role melanin synthesis plays in the aggressiveness and invasiveness of melanoma metastasis. B16 melanoma cells grown in the presence or absence of 0.1 mg/ml PABA for one to three weeks were injected into 12-day old chick embryos. At the end of a 7-day incubation period, the embryos were sacrificed and the number of metastatic lung tumor lesions were quantified.

B16 melanoma cells [5] = assay: Chick embryo tumor growth assay, B16 melanoma on CAM; assay type: in vivo; settings: cells grown with 0.1 mg/ml PABA for 6 weeks, CAM of 10-day old chick embryos, 7 days
Method: The effect of PABA on solid tumor growth in vivo were evaluated using the chick embryo tumor growth assay. (Petitclerc E et al. (2000) J Biol Chem 275:8051-8061.) B16 melanoma cells were grown in the presence or absence of 0.1 mg/ml PABA for 6 weeks. Cells were harvested and 2.5×10^5 cells from each group were inoculated in the chorioallantoic membranes (CAM) of 10-day old chick embryos. The embryos were allowed to develop for a further seven days. At the end of the 7-day incubation period, the embryos were sacrificed and the tumors removed and wet weights determined. Tumors formed from B16 melanoma cells treated with PABA were, on average, 60% smaller than tumors derived from untreated B16 melanoma cells (FIG. 4).

B16 melanoma cells [6] = assay: B16 melanoma cell proliferation with ionizing radiation, direct cell counts; assay type: cell-based; settings: 0.1 mg/ml PABA plus single fraction dose of 10 Gy, 3-day incubation
Method: (§1) Cell proliferation was determined by direct cell counts.
(Kinnaert E et al. (2000) Radiation Res 154:497-502.) Thus, blocking melanin synthesis or melanogenesis may cause melanoma cells to become much more sensitive to radiation therapy. To test the effect of PABA on the anti-proliferative effects of ionizing radiation, B16 melanoma cells grown in the presence or absence of 0.1 mg/ml PABA were treated with a single fraction dose of 10 Gy of ionizing radiation. Cell proliferation was monitored by direct cell counts over a 3-day incubation period.

[7] = test system: human G-361 melanoma cells; assay: Human G-361 melanoma cell proliferation with ionizing radiation, direct cell counts; assay type: cell-based; settings: 0.1 mg/ml PABA plus 20 Gy
Method: as §1
The radiation-enhancing effect of PABA on melanoma observed in B16 melanoma cells was confirmed in the pigmented human melanoma cell line G-361 (ATCC Number CRL-1424, (1978) Pediatr Res 12:485.) The human G-361 melanoma cells are more resistant to radiation than B16 melanoma cells and thus require a higher dose of ionizing radiation to inhibit growth, compared to B16 cells. Human G-361 melanoma cells were treated with 20 Gy of radiation, either alone or in combination with 0.1 mg/ml PABA, as described in example 7.

[8] = test system: Lewis Lung Carcinoma (LLC) cells; assay: Lewis Lung Carcinoma cell proliferation, direct cell counts; assay type: cell-based; settings: 0.1 mg/ml PABA, DMEM, 48-hour incubation
Method: The anti-proliferative effect of PABA on carcinoma cells was tested on Lewis Lung Carcinoma (LLC) cells. (Young M R et al. (2003) Int J Cancer 103:38-44.) Cells were grown in DMEM medium in the presence or absence of 0.1 mg/ml PABA. Cell proliferation was monitored by direct cell counts over a 48-hour incubation period.

[9] = test system: Lewis Lung Carcinoma (LLC) cells; assay: Lewis Lung Carcinoma tumor growth assay on chick embryo CAM; assay type: in vivo; settings: cells grown with 0.1 mg/ml PABA for 3 weeks, 7 days
Method: The effect of PABA on the growth of carcinoma tumors was tested using the Lewis Lung Carcinoma (LLC) tumor growth assay. (Mauceri H J et al. (2002) Cancer Chemother Pharmacol 50:412-418.) LLC cells were grown in DMEM medium in the presence or absence of 0.1 mg/ml PABA for 3 weeks. Cells were harvested and 2×10^6 cells from each group were inoculated in the CAMs of 10-day old chick embryos. The embryos were allowed to develop for a further seven days. At the end of the 7-day incubation period, the embryos were sacrificed and the tumors removed and wet weights determined.

B16F10 melanoma cells [10] = assay: Chick embryo tumor growth assay, B16F10 melanoma, PABA and ionizing radiation; assay type: in vivo; settings: tumor wet weight after 7 days
Method: The chick embryo tumor growth assay (Petitclerc E et al. (2000) J Biol Chem 275:8051-8061) was used to determine whether PABA enhances the effect of ionizing radiation to inhibit tumor growth in vivo. Four groups of chick embryos were studied. […] There were 5 to 10 chick embryos in each group.
The groups were created in the following manner. B16F10 melanoma cells were cultured for 14 days in growth medium in the absence of PABA or in the presence of PABA at a concentration of 100 μg/ml. The cells were harvested, washed, and resuspended in sterile PBS. The B16F10 melanoma cells were implanted on the CAMs of 10-day-old chick embryos, which were then incubated for at least 24 hours. The incubated chick embryos (some that were cultured in the absence of PABA and some that cultured in the presence of PABA) were treated with a single fraction dose of ionizing radiation (5.0 Gy). The embryos were incubated for 7 days and then the chick embryos of each group were sacrificed. The tumors were resected and tumor growth was assessed by measuring the wet weights of the resected tumors.

B16F10 melanoma cells [11] = assay: In vivo xenograft study of PABA and radiation, B16F10 melanoma; set-up: species or system Balb/c nude mice; settings: tumor volume after 15 days
Method: 1×10^6 B16F10 melanoma cells (cultured in the absence of PABA) were implanted subcutaneously into Balb/c nude mice. Intraperitoneal injections of PABA at a concentration of 50 mg/kg were started 3 days after implantation of the tumor cells and continued daily. Ten days following tumor cell implantation, mice were either not irradiated or were irradiated with 3 fractions of 3 Gy every other day for a total dose of 9 Gy.
After 15 days, the animals were sacrificed and the tumors were resected. The tumors were measured and their volumes were calculated.

transplantable melanoma = settings: hamsters; Zbytniewski et al. 1977; cited from earlier work
B16 melanoma cells [12] = assay: B16 melanoma cell proliferation with PABA and/or Taxol, direct cell counts; assay type: cell-based; settings: 10.0 μM paclitaxel and/or 0.1 mg/ml PABA, DMEM, 48-hour incubation
Method: as §1
The ability of PABA to enhance the anti-proliferative effect of the chemotherapeutic agent, Taxol, was tested in B16 melanoma cells. […] Cell proliferation was monitored by direct cell counts over a 48-hour incubation period.

SMILES: Nc1ccc(C(=O)O)cc1 [PABA, para-Aminobenzoic acid]
- colour of culture medium (accumulation of secreted melanin) (B16 melanoma cells [1]): remained red
- melanin secretion (absorbance of medium at 405 nm and 660 nm) (B16 melanoma cells [2]): time dependent and concentration dependent inhibition of melanin secretion
- colour of cell pellets (melanin accumulation) (B16 melanoma cells [3]): much lighter in color
- tyrosinase activity (Dopachrome formation) (tyrosinase): dose dependent inhibition of Dopachrome formation
- number of metastatic lung tumor lesions (B16 melanoma cells [4]): time dependent inhibition of B16 melanoma metastasis
- tumor size (wet weight) reduction vs tumors from untreated cells (B16 melanoma cells [5]): 60%
- cell proliferation after radiation, PABA vs no PABA (B16 melanoma cells [6]): increased the anti-proliferative and cytotoxic effects
- cell proliferation, PABA in combination with radiation [7]: essentially completely inhibited the proliferation
- cell proliferation [8]: increased the proliferation of LLC cells
- tumor size (wet weight) vs tumors from untreated LLC cells [9]: significantly larger
- inhibition of tumor growth as compared to the control group (B16F10 melanoma cells [10]; PABA 100 μg/ml plus single fraction ionizing radiation 5.0 Gy): about 90%
- inhibition of tumor growth as compared to the control group (B16F10 melanoma cells [10]; PABA alone, cells cultured 14 days with 100 μg/ml PABA): about 75%
- inhibition of tumor growth as compared to control (B16F10 melanoma cells [11]; PABA 50 mg/kg i.p. daily plus 3 fractions of 3 Gy (9 Gy), P<0.002): about 95%
- effect on tumor growth as compared to control (B16F10 melanoma cells [11]; PABA alone 50 mg/kg i.p. daily, P>0.100): minimal effect on tumor growth

SMILES: NCc1ccc(C(=O)O)cc1 [PAMBA, para-Aminomethylbenzoic acid]
- invasiveness of transplantable melanoma metastases (transplantable melanoma): reducing the invasiveness of transplantable melanoma metastases in hamsters

SMILES: CC(=O)O[C@H]1C(=O)[C@@]2(C)[C@H]([C@H](OC(=O)c3ccccc3)[C@]3(O)C[C@H](OC(=O)[C@H](O)[C@@H](NC(=O)c4ccccc4)c4ccccc4)C(C)=C1C3(C)C)[C@]1(OC(C)=O)CO[C@@H]1C[C@@H]2O [Paclitaxel, paclitaxel]
- cell proliferation (B16 melanoma cells [12]): significantly inhibited B16 melanoma cell proliferation
